Measured values taken from patent US10195216B1, “Antimicrobial activity and oil compositions of Costus speciosus (KOEN)” (King Abdulaziz University, priority 2017, dated 2019).

Experiments:
M. gypseum = experiment: agar disc diffusion, inhibition zone; assay type: cell-based, Microsporum gypseum; settings: diosgenin at 1.25 m
Method: (§1) M. gypseum, M. canis, C. albicans and C. tropicalis isolates were obtained from King Faisal Specialist Hospital & Research Centre-Jeddah, Saudi Arabia. They were cultured on sabaroud dextrose agar media (Oxoid CM 41) at 25° C. Antimicrobial activities of essential oils and plant extracts of Indian Costus. About 0.5 g of the testing compound was dissolved in 1.25 ml of a solvent (chloroform, ethanol and methanol) and it was cultured in sabaroud dextrose agar media and blood agar media using the agar disc diffusion method. Each media used were inoculated with 1 ml from a suspension of M. gypseum, M. canis and C. albicans for sabaroud dextrose agar and P. aeruginosa and S. aureus for blood agar. The fungi and yeast were incubated at 25° C. for 8 days, and 48 hours respectively and then tested at 37° C. for 24 hours. After that, the diameter of inhibition zones was measured in millimeters; Baker F J, Breach M R. Medical Microbiological Techniques, Butterworths 1980; Hasenekoglu H. Laboratory techniques for micro fungi. Ataturk University. Erzurum 1990 (both incorporated by reference).

C. tropicalis = experiment: agar disc diffusion, inhibition zone; assay type: cell-based, Candida tropicalis; settings: same extract concentrations
Method: as §1

C. albicans = experiment: agar disc diffusion, inhibition zone; assay type: cell-based, Candida albicans; settings: same extract concentrations
Method: as §1

| melting point | SMILES | antimicrobial activity in words (M. gypseum) | antimicrobial activity in words (C. tropicalis) | antimicrobial activity in words (C. albicans) |
| --- | --- | --- | --- | --- |
| 195 to 200 °C | CC1CC[C@@]2(OC1)O[C@H]1C[C@H]3[C@@H]4CC5OC56CCCC[C@]6(C)[C@H]4CC[C@]3(C)[C@H]1[C@@H]2C (stereo partly shown) [diosgenin epoxide, 5,6-Epoxyspirostane] |  |  |  |
|  | C[C@@H]1CC[C@@]2(OC1)O[C@H]1C[C@H]3[C@@H]4CC=C5C[C@@H](O)CC[C@]5(C)[C@H]4CC[C@]3(C)[C@H]1[C@@H]2C [Indian Costus diosgenin, (3β,25R)-spirost-5-en-3-ol] | effective | not as effective | not as effective |
